Test results from US8394792B2, “Heterocyclic derivatives” (C&C Research Laboratories, priority 2008, dated 2013).
Converted amounts (≈) assume the structure as drawn. Counter-ions that a name gives are not always drawn. Like-named read-outs stand apart in the source and are kept apart here.

What was measured:
[1] = biological target: T1, hURAT1 (Homo sapiens, UniProt Q96S37); test: Test for inhibiting urate reuptake activity via hURAT1 (uric acid transport assay in hURAT1-overexpressed HEK293 cell line); format: cell-based; settings: hURAT1-overexpressed HEK293 cells, [14C]-uric acid uptake, 100 μM uric acid
T1 construct: expressed in transfected cells; host or cells: HEK293 (human kidney cell line), transient transfection with Fugene6
T1 sequence (Q96S37 1-553): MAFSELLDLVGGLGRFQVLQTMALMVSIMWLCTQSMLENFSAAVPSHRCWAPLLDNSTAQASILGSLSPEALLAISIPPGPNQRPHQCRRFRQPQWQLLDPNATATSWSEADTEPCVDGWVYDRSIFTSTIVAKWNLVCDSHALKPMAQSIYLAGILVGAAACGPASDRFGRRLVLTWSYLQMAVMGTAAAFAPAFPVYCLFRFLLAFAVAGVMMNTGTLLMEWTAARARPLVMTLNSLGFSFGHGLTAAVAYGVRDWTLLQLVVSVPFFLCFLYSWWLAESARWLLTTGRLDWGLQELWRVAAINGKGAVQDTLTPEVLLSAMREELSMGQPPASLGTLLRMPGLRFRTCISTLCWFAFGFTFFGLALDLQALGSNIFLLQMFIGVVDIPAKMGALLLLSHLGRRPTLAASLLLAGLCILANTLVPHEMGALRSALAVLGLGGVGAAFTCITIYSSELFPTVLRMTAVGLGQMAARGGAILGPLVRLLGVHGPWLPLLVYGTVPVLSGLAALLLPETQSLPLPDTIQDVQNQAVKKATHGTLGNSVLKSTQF
Experimental: Test for Inhibiting Urate Reuptake Activity Via hURAT1
[hURAT1 Overexpression by Transient Transfection in Human Kidney Cell Line]
A human kidney cell line, HEK293 was incubated by using OptiMEM medium in 100 mm dish at (3*10^6 cells) for 24 hours. In order for the expression of hURAT1, a transfection mixture solution (Fugene6 18 μl:hURAT1 DNA 6 μg=3:1, in 600 μl OptiMEM medium/dish) was prepared and kept for 15 minutes at room temperature. To each dish, 600 μl of the mixture solution was injected and then incubated in 37[…] cell incubator for 24 hours. The hURAT1-overexpressed HEK293 cell line was trypsinized and cells were harvested. Cells were resuspended in medium and seeded at 6*10^5 cells/well and incubated for 24 hours in 24-well plate which was surface-coated with Poly-D-Lysine.
[Uric Acid Transport Assay in hURAT1-Overexpressed HEK293 Cell Line]
For each concentration, the stock sample solution was diluted in PBS (1 μl in 800 μl of PBS) as 1.25 fold concentrated working sample solution to obtain final concentrations of 0.01, 0.1, 1 and 10 μM. The hURAT1-overexpressed cell line was washed with 1 ml of PBS. After washing, PBS was discarded and the sample solution was diluted by 1.25 fold with PBS. Preincubation of cells with 200 μl/well of sample solution made above was conducted for 30 minutes in 37[…] cell incubator. After the incubation, each well was treated with 50 μl of PBS containing 500 μM [^14C]-uric acid (final 100 μM of uric acid/well). Cells were incubated for 2 minutes. The cells were washed twice with 1 ml of PBS.
To measure the uric acid uptake, each well was treated with 150 μl of M-per buffer (PIERCE) and kept in 37° C. cell incubator for 30 minutes to make cell lysates. 150 μl of cell lysates was transferred into test tube and 4 ml of scintillation cocktail was added. CPM value of [^14C]-uric acid absorbed into cells was detected using liquid scintillation counter. IC50 for the inhibition of uric acid uptake by each test sample was analyzed by computational numerical processing.

[2] = Test for solubility according to pH; format: physicochemical; settings: 37° C. 2 hours; for solubility at 2 h: thermodynamic from solid
Experimental: 2.0 g of sodium chloride was dissolved in 7.0 mL of hydrochloric acid and water to make the total volume of 1000 mL. This solution was colorless and clear. Its pH was about 1.2.
To 250 mL of 0.2 mol/L potassium dihydrogen phosphate solution, 118 mL of 0.2 mol/L sodium hydroxide solution and water were added to make the total volume of 1000 mL. This solution was colorless and clear. Its pH was about 6.8.
For the compounds of present invention prepared in the examples, the test samples were prepared in each of the first and second solutions with 2 mg/mL concentration. This test sample solution was agitated for 10 seconds, sonicated for 1 minute and heated at 37° C. for 2 hours. The heated test sample solution was filtered to remove undissolved compounds therein. From filtered solution, 100 μl of the completely dissolved solution was sampled and 100 μl of acetonitrile was added thereto to make test sample solution. For each analysis of test sample solution, the solubility was measured by using liquid chromatography.

[3] = tested on: Cebus monkey; test: Test for uricosuric effect in Cebus monkey; format: in vivo; settings: comparison test
[4] = biological target: CYP2C9 (Homo sapiens, UniProt P11712); test: biochemical
[5] = pH 1.2, simulated gastric fluid, first solution pH about 1.2, 2 mg/mL, read-out: Solubility (μg/mL) pH 1.2
[6] = pH 6.8, aqueous buffer, second solution pH about 6.8, 2 mg/mL, read-out: Solubility (μg/mL) pH 6.8
[7] = read-out: IC50 (μM) hURAT, level of uric acid reuptake inhibition
[8] = 37 °C, pH 1.2, simulated gastric fluid, first solution pH about 1.2, 2 mg/mL, read-out: Solubility (μg/mL) pH 1.2
[9] = 37 °C, pH 6.8, aqueous buffer, second solution pH about 6.8, 2 mg/mL, read-out: Solubility (μg/mL) pH 6.8
[10] = second solution pH about 6.8, 2 mg/mL

Chain of CYP2C9 (P11712 whole entry): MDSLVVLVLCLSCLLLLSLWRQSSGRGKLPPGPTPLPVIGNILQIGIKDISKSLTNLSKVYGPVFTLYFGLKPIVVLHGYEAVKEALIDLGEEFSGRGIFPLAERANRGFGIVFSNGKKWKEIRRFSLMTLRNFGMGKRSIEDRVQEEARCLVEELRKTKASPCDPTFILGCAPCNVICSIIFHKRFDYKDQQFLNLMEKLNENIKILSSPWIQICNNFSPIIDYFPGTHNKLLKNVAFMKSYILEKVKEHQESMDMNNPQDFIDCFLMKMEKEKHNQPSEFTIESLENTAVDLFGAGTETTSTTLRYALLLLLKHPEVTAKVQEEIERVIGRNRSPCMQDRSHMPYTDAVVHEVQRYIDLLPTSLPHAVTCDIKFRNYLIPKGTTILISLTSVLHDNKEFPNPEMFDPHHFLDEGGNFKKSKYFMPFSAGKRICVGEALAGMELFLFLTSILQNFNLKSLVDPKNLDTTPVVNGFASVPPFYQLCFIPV

Structure (SMILES): Br.O=C(c1cc(Br)c(O)c(Br)c1)N1CCOc2ccncc21 [Compound 3, (3,5-dibromo-4-hydroxy-phenyl)-(2,3-dihydro-pyrido[4,3-b][1,4]oxazin-4-yl)-methanone bromic acid salt]
- IC50 ([1]; IC50 (μM) hURAT, level of uric acid reuptake inhibition): 0.0165 µM
- solubility at 2 h [2, 5]: 1420 µg/mL
- solubility at 2 h [2, 6]: 886 µg/mL
- enhanced uricosuric activity compared to the compound disclosed in WO2006/057460 [3]: 180%
- IC50 [4]: 24.5 µM

Structure (SMILES): Cc1ccc2c(n1)OCCN2C(=O)c1cc(Br)c(O)c(Br)c1 [Compound 7, (3,5-dibromo-4-hydroxy-phenyl)-(6-methyl-2,3-dihydro-pyrido[2,3-b][1,4]oxazin-1-yl)-methanone]
- IC50 [1, 7]: 0.3 µM
- solubility at 2 h [2, 8]: 106 µg/mL (≈ 247 µM)
- solubility at 2 h [2, 9]: 109 µg/mL (≈ 255 µM)
- IC50 [4]: > 20 µM

Structure (SMILES): CC1(C)CN(C(=O)c2cc(Br)c(O)c(Br)c2)c2cnccc2O1 [Compound 8, (3,5-dibromo-4-hydroxy-phenyl)-(2,2-dimethyl-2,3-dihydro-pyrido[4,3-b][1,4]oxazin-4-yl)-methanone]
- IC50 [1, 7]: 0.353 µM
- solubility at 2 h [2, 8]: 986 µg/mL (≈ 2230 µM)
- solubility at 2 h [2, 9]: 344 µg/mL (≈ 778 µM)
- IC50 [4]: > 20 µM

Structure (SMILES): O=C(c1ccc(O)c(C(F)(F)F)c1)N1CCOc2ccncc21 [Compound 12, (2,3-dihydro-pyrido[4,3-b][1,4]oxazin-4-yl)-(4-hydroxy-3-trifluoromethyl-phenyl)-methanone]
- IC50 [1, 7]: 0.0408 µM
- solubility at 2 h [2, 8]: 1880 µg/mL (≈ 5800 µM)
- solubility at 2 h [2, 9]: 132 µg/mL (≈ 407 µM)
- IC50 [4]: > 60 µM

Structure (SMILES): Br.O=C(c1cc(Cl)c(O)c(Cl)c1)N1CCOc2ccncc21 [Compound 13, (3,5-dichloro-4-hydroxy-phenyl)-(2,3-dihydro-pyrido[4,3-b][1,4]oxazin-4-yl)-methanone bromic acid salt]
- IC50 [1, 7]: 0.337 µM
- solubility at 2 h [2, 5]: 1400 µg/mL
- solubility at 2 h [2, 6]: 847 µg/mL
- IC50 [4]: > 60 µM

Structure (SMILES): O=C(c1cc(Cl)c(O)c([N+](=O)[O-])c1)N1CCOc2ccncc21 [Compound 14, (3-chloro-4-hydroxy-5-nitro-phenyl)-(2,3-dihydro-pyrido[4,3-b][1,4]oxazin-4-yl)-methanone]
- IC50 [1, 7]: 0.126 µM
- solubility at 2 h [2, 8]: 1480 µg/mL (≈ 4410 µM)
- solubility at 2 h [2, 9]: 747 µg/mL (≈ 2230 µM)
- IC50 [4]: 16.6 µM

Structure (SMILES): O=C(c1cc(Cl)c(O)c(Cl)c1)N1CCOc2cnccc21 [Compound 15, (3,5-dichloro-4-hydroxy-phenyl)-(2,3-dihydro-pyrido[3,4-b][1,4]oxazin-1-yl)-methanone bromic acid salt]
- IC50 [1, 7]: 0.458 µM
- solubility at 2 h [2, 8]: 1510 µg/mL
- Solubility (μg/mL) pH 6.8 [2, 10]: 453 μg/mL
- IC50 [4]: 4.5 µM

Structure (SMILES): O=C(c1cc(Br)c(O)c(Br)c1)N1CCOc2ncc(C(F)(F)F)cc21 [Compound 22-2, (3,5-dibromo-4-hydroxy-phenyl)-(7-trifluoromethyl-2,3-dihydro-pyrido[2,3-b][1,4]oxazin-1-yl)-methanone]
- IC50 [1, 7]: 0.0043 µM
- solubility at 2 h [2, 8]: < 0.1 µg/mL
- solubility at 2 h [2, 9]: 153 µg/mL (≈ 317 µM)
- IC50 [4]: 9.45 µM

Structure (SMILES): COC(=O)COc1c(Br)cc(C(=O)N2CCOc3ccncc32)cc1Br [Compound 24, (2,6-dibromo-4-(2,3-dihydro-pyrido[4,3-b][1,4]oxazin-4-carbonyl)-phenoxy]-acetic acid methyl ester]
- IC50 [1, 7]: 0.363 µM
- solubility at 2 h [2, 8]: 1250 µg/mL (≈ 2580 µM)
- solubility at 2 h [2, 9]: 134 µg/mL (≈ 275 µM)
- IC50 [4]: > 20 µM

Structure (SMILES): Cc1cnc2c(c1)N(C(=O)c1cc(Br)c(O)c(Br)c1)CCO2 [Compound 27-2, (3,5-dibromo-4-hydroxy-phenyl)-(7-methyl-2,3-dihydro-pyrido[2,3-b][1,4]oxazin-1-yl)-methanone]
- IC50 [1, 7]: 0.012 µM
- solubility at 2 h [2, 8]: 207 µg/mL (≈ 484 µM)
- solubility at 2 h [2, 9]: 579 µg/mL (≈ 1350 µM)
- IC50 [4]: > 20 µM

Structure (SMILES): O=C(c1cc(F)c(O)c(F)c1)N1CCOc2ccncc21 [Compound 29, (3,5-difluoro-4-hydroxy-phenyl)-(2,3-dihydro-pyrido[4,3-b][1,4]oxazin-4-yl)-methanone]
- IC50 [1, 7]: 0.235 µM
- solubility at 2 h [2, 8]: 1090 µg/mL (≈ 3720 µM)
- solubility at 2 h [2, 9]: 382 µg/mL (≈ 1310 µM)
- IC50 [4]: > 20 µM

Structure (SMILES): O=C(c1cc(Br)c(O)c(Br)c1)N1CCOc2ccnc(Cl)c21 [Compound 30, (5-chloro-2,3-dihydro-pyrido[4,3-b][1,4]oxazin-4-yl)-(3,5-dibromo-4-hydroxy-phenyl)-methanone]
- IC50 [1, 7]: 0.028 µM
- solubility at 2 h [2, 8]: 7.2 µg/mL (≈ 16.1 µM)
- solubility at 2 h [2, 9]: 332 µg/mL (≈ 740 µM)
- IC50 [4]: > 40 µM

Structure (SMILES): O=S(=O)(c1cc(Br)c(O)c(Br)c1)N1CCOc2ccncc21 [Compound 35-2, 2,6-dibromo-4-(2,3-dihydro-pyrido[4,3-b][1,4]oxazin-4-sulfonyl)-phenol]
- IC50 [1, 7]: 0.277 µM
- solubility at 2 h [2, 8]: 1460 µg/mL (≈ 3240 µM)
- solubility at 2 h [2, 9]: 234 µg/mL (≈ 519 µM)
- IC50 [4]: > 20 µM

Structure (SMILES): O=C(c1cc(Cl)c(O)c([N+](=O)[O-])c1)N1CCOc2cnccc21 [Compound 36, (3-chloro-4-hydroxy-5-nitro-phenyl)-(2,3-dihydro-pyrido[3,4-b][1,4]oxazin-1-yl)-methanone]
- IC50 [1, 7]: 0.175 µM
- solubility at 2 h [2, 8]: 1560 µg/mL (≈ 4650 µM)
- solubility at 2 h [2, 9]: 743 µg/mL (≈ 2210 µM)
- IC50 [4]: 1.93 µM

Structure (SMILES): O=C(c1ccc(O)c(Cl)c1)N1CCOc2ccncc21 [Compound 37, (3-chloro-4-hydroxy-phenyl)-(2,3-dihydro-pyrido[4,3-b][1,4]oxazin-4-yl)-methanone]
- IC50 [1, 7]: 0.212 µM
- solubility at 2 h [2, 8]: 1930 µg/mL (≈ 6640 µM)
- solubility at 2 h [2, 9]: 114 µg/mL (≈ 393 µM)
- IC50 [4]: > 20 µM

Structure (SMILES): O=C(c1cc(Cl)c(O)c(Cl)c1)N1CCOc2ccncc21 [Compound 39, (3,5-dichloro-4-hydroxy-phenyl)-(2,3-dihydro-pyrido[4,3-b][1,4]oxazin-4-yl)-methanone]
- IC50 [1, 7]: 0.0884 µM
- solubility at 2 h [2, 8]: 1340 µg/mL (≈ 4120 µM)
- solubility at 2 h [2, 9]: 480 µg/mL (≈ 1480 µM)
- IC50 [4]: > 20 µM

Structure (SMILES): O=C(c1cc(Cl)c(O)c(Cl)c1)N1CCOc2cnccc21 [Compound 41, (3,5-dichloro-4-hydroxy-phenyl)-(2,3-dihydro-pyrido[3,4-b][1,4]oxazin-1-yl)-methanone]
- IC50 [1, 7]: 0.376 µM
- Solubility (μg/mL) pH 1.2 ([2]; first solution pH about 1.2, 2 mg/mL): 808.87 μg/mL
- Solubility (μg/mL) pH 6.8 [2, 10]: 156.54 μg/mL
- IC50 [4]: > 20 µM

Structure (SMILES): O=C(Cc1cc(Br)c(O)c(Br)c1)N1CCOc2ccncc21 [Compound 42, 2-(3,5-dibromo-4-hydroxy-phenyl)-1-(2,3-dihydro-pyrido[4,3-b][1,4]oxazin-4-yl)-ethanone]
- IC50 [1, 7]: 0.2 µM
- solubility at 2 h [2, 8]: 1310 µg/mL (≈ 3060 µM)
- solubility at 2 h [2, 9]: 143 µg/mL (≈ 333 µM)
- IC50 [4]: 18.4 µM

Structure (SMILES): N#Cc1cnc2c(c1)N(C(=O)c1cc(Br)c(O)c(Br)c1)CCO2 [Compound 47-2, 1-(3,5-dibromo-4-hydroxy-benzoyl)-2,3-dihydro-1H-pyrido[2,3-b][1,4]oxazin-7-carbonitrile]
- IC50 [1, 7]: 0.0179 µM
- solubility at 2 h [2, 8]: 6.4 µg/mL (≈ 14.6 µM)
- solubility at 2 h [2, 9]: 330 µg/mL (≈ 751 µM)
- IC50 [4]: > 20 µM

Structure (SMILES): O=C(c1cc(Br)c(O)c(Br)c1)N1CCOc2ncncc21 [Compound 62, (3,5-dibromo-4-hydroxy-phenyl)-(6,7-dihydro-pyrimido[4,5-b][1,4]oxazin-5-yl)-methanone]
- IC50 [1, 7]: 0.128 µM
- solubility at 2 h [2, 8]: 34.8 µg/mL (≈ 83.8 µM)
- solubility at 2 h [2, 9]: 624 µg/mL (≈ 1500 µM)
- IC50 [4]: > 20 µM
